# Measurements from ChEMBL document CHEMBL1124750, “Diels-Alder adducts of vinyl porphyrins: synthesis and in vivo photodynamic effect against a rat bladder tumor” (1990).
# Experiments:
# Rattus norvegicus [1] = species: Rattus norvegicus; assay: Dose required in phototherapy for twelve days and free of palpable tumor in 100% of male Fischer CDF (F-344)/CrlBr rats
# Rattus norvegicus [2] = species: Rattus norvegicus; assay: Dose required in phototherapy for twelve days and palpable tumor detected in 50% of male Fischer CDF (F-344)/CrlBr rats; assay type: functional
# Rattus norvegicus [3] = species: Rattus norvegicus; assay: Dose required in phototherapy for twelve days and 73% control in tumor size in male Fischer CDF (F-344)/CrlBr rats; assay type: functional
# Rattus norvegicus [4] = species: Rattus norvegicus; assay: Dose required in phototherapy for twelve days in tumor size detected in male Fischer CDF (F-344)/CrlBr rats; assay type: functional
# Rattus norvegicus [5] = species: Rattus norvegicus; assay: Compound evaluated for cytotoxicity in male Fischer CDF (F-344)/CrlBr rats; assay type: functional
structure (smiles),measurement,setting,value
CCC1=C(C)c2cc3[nH]c(cc4nc(cc5[nH]c(cc1n2)C1(C)C5=CCC(C(=O)OC)=C1C(=O)OC)C(C)=C4CC)c(C)c3CC (stereo unspecified),Dose,Rattus norvegicus [1],1 mg/kg
CCC1=C(CC)c2cc3[nH]c(cc4nc(cc5[nH]c(cc1n2)C1=CCC(C(=O)OC)=C(C(=O)OC)C15CC)C(CC)=C4CC)c(CC)c3CC (stereo unspecified),Dose,Rattus norvegicus [2],1 mg/kg
C=Cc1c(C)c2cc3nc(cc4nc(cc5[nH]c(cc1[nH]2)C1(C)C5=CCC(C#N)(C#N)C1(C#N)C#N)C(C)=C4CCC(=O)OC)C(CCC(=O)OC)=C3C (stereo unspecified),Dose,Rattus norvegicus [3],1 mg/kg
C=Cc1c(C)c2cc3nc(cc4nc(cc5[nH]c(cc1[nH]2)C1(C)C5=CCC(C(=O)OC)=C1C(=O)OC)C(C)=C4CCC(=O)OC)C(CCC(=O)OC)=C3C (stereo unspecified),Dose,Rattus norvegicus [4],5 mg/kg
CCC1=C(CC)c2cc3[nH]c(cc4nc(cc5[nH]c(cc1n2)C1=CCC(C#N)(C#N)C(C#N)(C#N)C15CC)C(CC)=C4CC)c(CC)c3CC (stereo unspecified),Dose,Rattus norvegicus [5],1 mg/kg
CCC1=C(C)c2cc3[nH]c(cc4[nH]c(cc5nc(cc1n2)C(C)=C5CC)C1(C)C4=CCC(C#N)(C#N)C1(C#N)C#N)c(C)c3CC (stereo unspecified),Dose,Rattus norvegicus [5],1 mg/kg
